Results reported in ChEMBL document CHEMBL1201862, “PubChem BioAssay data set” (2004).
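Method: 48-hour compound exposure of cells in 96-well plates, five concentrations, linear interpolation of endpoints. GI50 = concentration required for 50% inhibition of growth.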 Activity calls are given as the source filed them. Cut-off read from the data, not from the text of the source: active = GI50 up to about 1.1 µM and inactive = higher.

Experiments:
Test in all cases: growth of human tumour cells (NCI), 48 h
HCT-116 = tested on: HCT-116
NCI-H23 = tested on: NCI-H23
Malme-3M = tested on: Malme-3M
SN12C = tested on: SN12C
SK-MEL-5 = tested on: SK-MEL-5
SK-MEL-2 = tested on: SK-MEL-2
SK-OV-3 = tested on: SK-OV-3
DU-145 = tested on: DU-145
786-0 = tested on: 786-0
HL-60 = tested on: HL-60
ACHN = tested on: ACHN
UACC-257 = tested on: UACC-257
SNB-19 = tested on: SNB-19
MCF7 = tested on: MCF7
CAKI-1 = tested on: CAKI-1
SR = tested on: SR
OVCAR-4 = tested on: OVCAR-4
SF-539 = tested on: SF-539
HT-29 = tested on: HT-29
T47D = tested on: T47D
HCC 2998 = tested on: HCC 2998
NCI/ADR-RES = tested on: NCI/ADR-RES
TK-10 = tested on: TK-10
UACC-62 = tested on: UACC-62
NCI-H460 = tested on: NCI-H460
IGROV-1 = tested on: IGROV-1
HOP-62 = tested on: HOP-62
K562 = tested on: K562
KM12 = tested on: KM12
A549 = tested on: A549
U-251 = tested on: U-251
NCI-H522 = tested on: NCI-H522
SNB-75 = tested on: SNB-75
Hs-578T = tested on: Hs-578T
MDA-N = tested on: MDA-N
CCRF-CEM = tested on: CCRF-CEM
SF-295 = tested on: SF-295
MDA-MB-435 = tested on: MDA-MB-435
SW-620 = tested on: SW-620
BT-549 = tested on: BT-549
LOX IMVI = tested on: LOX IMVI
OVCAR-5 = tested on: OVCAR-5
OVCAR-3 = tested on: OVCAR-3
SF-268 = tested on: SF-268
UO-31 = tested on: UO-31
SK-MEL-28 = tested on: SK-MEL-28
PC-3 = tested on: PC-3
RXF 393 = tested on: RXF 393
M14 = tested on: M14
MOLT-4 = tested on: MOLT-4
HOP-92 = tested on: HOP-92
OVCAR-8 = tested on: OVCAR-8
COLO 205 = tested on: COLO 205
HCT-15 = tested on: HCT-15
MDA-MB-231 = tested on: MDA-MB-231
NCI-H226 = tested on: NCI-H226
EKVX = tested on: EKVX

For `CC(=O)OC12OC(C)(C3C(=O)N(c4ccccc4)C(=O)C31)N(c1ccccc1)C2=O` (configuration not stated), the GI50 (HCT-116) was > 100 µM (inactive), the GI50 (NCI-H23) was > 100 µM (inactive) and the GI50 (Malme-3M) was > 100 µM (inactive). For the same compound, the GI50 (SN12C) was > 100 µM (inactive), the GI50 (SK-MEL-5) was > 100 µM (inactive) and the GI50 (SK-MEL-2) was > 100 µM (inactive). For the same compound, the GI50 (SK-OV-3) was > 100 µM (inactive), the GI50 (DU-145) was > 100 µM (inactive) and the GI50 (786-0) was > 100 µM (inactive). The GI50 (HL-60) was > 100 µM (inactive), the GI50 (ACHN) was > 100 µM (inactive) and the GI50 (UACC-257) was 16.7 µM (inactive). The GI50 (SNB-19) was > 100 µM (inactive), the GI50 (MCF7) was > 100 µM (inactive) and the GI50 (CAKI-1) was > 100 µM (inactive). The GI50 (SR) was > 100 µM (inactive), the GI50 (OVCAR-4) was 51.4 µM (inactive) and the GI50 (SF-539) was > 100 µM (inactive). The GI50 (HT-29) was > 100 µM (inactive), the GI50 (T47D) was > 100 µM (inactive) and the GI50 (HCC 2998) was 51.6 µM (inactive). For the same compound, the GI50 (NCI/ADR-RES) was > 100 µM (inactive), the GI50 (TK-10) was > 100 µM (inactive) and the GI50 (UACC-62) was > 100 µM (inactive). The GI50 (NCI-H460) was > 100 µM (inactive), the GI50 (IGROV-1) was > 100 µM (inactive) and the GI50 (HOP-62) was > 100 µM (inactive). For the same compound, the GI50 (K562) was > 100 µM (inactive), the GI50 (KM12) was > 100 µM (inactive) and the GI50 (A549) was > 100 µM (inactive). For the same compound, the GI50 (U-251) was > 100 µM (inactive), the GI50 (NCI-H522) was > 100 µM (inactive) and the GI50 (SNB-75) was > 100 µM (inactive). For the same compound, the GI50 (Hs-578T) was > 100 µM (inactive), the GI50 (MDA-N) was > 100 µM (inactive) and the GI50 (CCRF-CEM) was > 100 µM (inactive). The GI50 (SF-295) was > 100 µM (inactive), the GI50 (MDA-MB-435) was > 100 µM (inactive) and the GI50 (SW-620) was > 100 µM (inactive). The GI50 (BT-549) was > 100 µM (inactive), the GI50 (LOX IMVI) was > 100 µM (inactive) and the GI50 (OVCAR-5) was > 100 µM (inactive). For the same compound, the GI50 (OVCAR-3) was > 100 µM (inactive), the GI50 (SF-268) was > 100 µM (inactive) and the GI50 (UO-31) was > 100 µM (inactive). For the same compound, the GI50 (SK-MEL-28) was > 100 µM (inactive), the GI50 (PC-3) was 69.3 µM (inactive) and the GI50 (RXF 393) was > 100 µM (inactive). For the same compound, the GI50 (M14) was > 100 µM (inactive), the GI50 (MOLT-4) was > 100 µM (inactive) and the GI50 (HOP-92) was 45.7 µM (inactive). For the same compound, the GI50 (OVCAR-8) was > 100 µM (inactive), the GI50 (COLO 205) was > 100 µM (inactive) and the GI50 (HCT-15) was greater than 100 µM. The GI50 (MDA-MB-231) was > 100 µM (inactive), the GI50 (NCI-H226) was > 100 µM (inactive) and the GI50 (EKVX) was 84.7 µM (inactive).
